Holding throughout (settings): Compound concentration 10 µM
For test [1], the target named is T1, Alpha-2B adrenergic receptor (Homo sapiens) (UniProt P18089).
T1 sequence (whole entry): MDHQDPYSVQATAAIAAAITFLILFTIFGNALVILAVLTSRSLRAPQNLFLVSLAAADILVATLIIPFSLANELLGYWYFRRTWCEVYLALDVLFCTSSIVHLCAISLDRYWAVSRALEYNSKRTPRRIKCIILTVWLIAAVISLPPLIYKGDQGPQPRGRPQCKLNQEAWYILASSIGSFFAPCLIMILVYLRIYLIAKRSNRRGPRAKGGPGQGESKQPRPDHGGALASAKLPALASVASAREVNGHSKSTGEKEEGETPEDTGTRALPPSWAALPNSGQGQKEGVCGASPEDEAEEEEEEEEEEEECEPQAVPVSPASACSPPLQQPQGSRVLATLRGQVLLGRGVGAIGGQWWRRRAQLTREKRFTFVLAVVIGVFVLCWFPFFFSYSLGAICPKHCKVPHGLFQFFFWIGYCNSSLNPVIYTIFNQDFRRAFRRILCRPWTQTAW

The target of test [2] is Translocator protein (Homo sapiens) (UniProt P30536).
Sequence of Translocator protein (Homo sapiens) (P30536 whole entry): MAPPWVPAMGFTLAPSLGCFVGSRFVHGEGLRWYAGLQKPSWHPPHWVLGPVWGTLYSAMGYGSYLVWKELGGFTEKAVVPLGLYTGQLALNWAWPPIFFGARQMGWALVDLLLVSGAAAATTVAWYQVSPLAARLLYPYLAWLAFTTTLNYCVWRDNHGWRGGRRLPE
Test [3] concerns the target 5-hydroxytryptamine receptor 1B (Homo sapiens) (UniProt P28222).
Test [4] has as its target Kappa-type opioid receptor (Homo sapiens) (UniProt P41145).
Test [5] addresses D(2) dopamine receptor (Homo sapiens) (UniProt P14416).
Test [6] deals with 5-hydroxytryptamine receptor 2B (Homo sapiens) (UniProt P41595).
The target in test [7] is T2, Alpha-2C adrenergic receptor (Homo sapiens) (UniProt P18825).
T2 sequence (whole entry): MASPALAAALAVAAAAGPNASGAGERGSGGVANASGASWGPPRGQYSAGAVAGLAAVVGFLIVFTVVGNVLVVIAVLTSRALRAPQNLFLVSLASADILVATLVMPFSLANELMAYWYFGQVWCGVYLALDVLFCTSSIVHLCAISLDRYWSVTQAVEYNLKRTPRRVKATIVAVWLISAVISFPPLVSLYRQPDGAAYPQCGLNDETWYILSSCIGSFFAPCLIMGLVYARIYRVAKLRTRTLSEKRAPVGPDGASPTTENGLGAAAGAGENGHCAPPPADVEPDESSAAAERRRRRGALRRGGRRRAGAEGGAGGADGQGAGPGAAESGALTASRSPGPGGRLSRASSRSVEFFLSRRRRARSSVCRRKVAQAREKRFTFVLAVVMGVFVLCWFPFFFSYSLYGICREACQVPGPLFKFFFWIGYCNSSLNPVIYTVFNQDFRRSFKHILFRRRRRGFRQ

In test [8] the target is T3, Alpha-2A adrenergic receptor (Homo sapiens) (UniProt P08913).
T3 sequence (whole entry): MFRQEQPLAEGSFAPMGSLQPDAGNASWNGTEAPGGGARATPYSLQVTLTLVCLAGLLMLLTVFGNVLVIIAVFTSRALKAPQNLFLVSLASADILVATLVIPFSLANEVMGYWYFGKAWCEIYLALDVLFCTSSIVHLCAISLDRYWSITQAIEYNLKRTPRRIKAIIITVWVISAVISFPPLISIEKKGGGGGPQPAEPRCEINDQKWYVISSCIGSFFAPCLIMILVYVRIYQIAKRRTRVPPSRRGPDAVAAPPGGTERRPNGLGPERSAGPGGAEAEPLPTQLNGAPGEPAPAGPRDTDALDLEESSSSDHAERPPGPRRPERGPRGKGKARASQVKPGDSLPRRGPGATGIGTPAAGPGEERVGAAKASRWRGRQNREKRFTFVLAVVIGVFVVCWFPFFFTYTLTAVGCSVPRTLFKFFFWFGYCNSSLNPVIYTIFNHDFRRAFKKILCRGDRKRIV

The target of test [9] is T4, D(4) dopamine receptor (Homo sapiens) (UniProt P21917).
T4 sequence (whole entry): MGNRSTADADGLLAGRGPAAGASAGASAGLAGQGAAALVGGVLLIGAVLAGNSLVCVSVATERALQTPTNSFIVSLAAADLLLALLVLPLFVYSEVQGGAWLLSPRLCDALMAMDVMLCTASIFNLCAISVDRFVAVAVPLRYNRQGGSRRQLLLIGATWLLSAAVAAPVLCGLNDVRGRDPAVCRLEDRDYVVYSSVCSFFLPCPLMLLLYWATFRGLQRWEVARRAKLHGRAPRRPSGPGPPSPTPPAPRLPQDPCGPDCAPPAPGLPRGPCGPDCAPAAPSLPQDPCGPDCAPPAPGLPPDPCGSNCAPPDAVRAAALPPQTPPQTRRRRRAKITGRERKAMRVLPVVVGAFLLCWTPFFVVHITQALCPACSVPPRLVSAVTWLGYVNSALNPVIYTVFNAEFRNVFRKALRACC

In test [10] the target is 5-hydroxytryptamine receptor 7 (Homo sapiens) (UniProt P34969).
Sequence of 5-hydroxytryptamine receptor 7 (Homo sapiens) (P34969 whole entry): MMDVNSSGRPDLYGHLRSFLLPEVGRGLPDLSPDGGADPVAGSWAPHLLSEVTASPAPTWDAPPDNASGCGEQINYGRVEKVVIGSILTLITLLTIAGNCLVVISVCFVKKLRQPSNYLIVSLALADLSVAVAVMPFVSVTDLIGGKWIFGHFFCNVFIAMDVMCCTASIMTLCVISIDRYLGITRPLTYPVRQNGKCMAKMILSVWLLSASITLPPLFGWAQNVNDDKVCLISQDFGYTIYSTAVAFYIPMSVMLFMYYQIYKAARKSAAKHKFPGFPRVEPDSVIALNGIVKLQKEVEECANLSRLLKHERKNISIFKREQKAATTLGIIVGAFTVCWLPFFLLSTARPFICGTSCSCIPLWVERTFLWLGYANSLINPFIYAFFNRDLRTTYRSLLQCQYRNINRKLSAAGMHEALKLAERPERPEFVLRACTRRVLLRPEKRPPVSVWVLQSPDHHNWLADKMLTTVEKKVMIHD
Test [11] deals with 5-hydroxytryptamine receptor 1D (Homo sapiens) (UniProt P28221).
In test [12] the target is Beta-2 adrenergic receptor (Homo sapiens) (UniProt P07550).
Sequence of Beta-2 adrenergic receptor (Homo sapiens) (P07550 whole entry, looked up): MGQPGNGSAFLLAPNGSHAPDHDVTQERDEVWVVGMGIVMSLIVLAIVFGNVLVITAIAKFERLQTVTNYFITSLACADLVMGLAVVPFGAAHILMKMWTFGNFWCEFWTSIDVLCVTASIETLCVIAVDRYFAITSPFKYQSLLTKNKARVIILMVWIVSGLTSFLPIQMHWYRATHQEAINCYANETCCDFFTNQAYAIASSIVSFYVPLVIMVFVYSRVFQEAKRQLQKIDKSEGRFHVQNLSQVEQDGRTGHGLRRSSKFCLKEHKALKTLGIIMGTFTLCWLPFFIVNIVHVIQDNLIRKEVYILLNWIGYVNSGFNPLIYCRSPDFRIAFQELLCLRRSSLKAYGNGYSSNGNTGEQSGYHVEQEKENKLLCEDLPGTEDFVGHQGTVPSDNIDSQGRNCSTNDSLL
Test [13] addresses Mu-type opioid receptor (Homo sapiens) (UniProt P35372).
The target of test [14] is Sigma intracellular receptor 2 (Homo sapiens) (UniProt Q5BJF2).
Sequence of Sigma intracellular receptor 2 (Homo sapiens) (Q5BJF2 whole entry): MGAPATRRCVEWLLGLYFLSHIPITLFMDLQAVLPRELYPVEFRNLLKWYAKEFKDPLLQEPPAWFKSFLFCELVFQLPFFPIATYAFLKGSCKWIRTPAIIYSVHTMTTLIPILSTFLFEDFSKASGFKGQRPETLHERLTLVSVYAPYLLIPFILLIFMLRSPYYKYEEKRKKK
The target of test [15] is Histamine H1 receptor (Homo sapiens) (UniProt P35367).
Sequence of Histamine H1 receptor (Homo sapiens) (P35367 whole entry): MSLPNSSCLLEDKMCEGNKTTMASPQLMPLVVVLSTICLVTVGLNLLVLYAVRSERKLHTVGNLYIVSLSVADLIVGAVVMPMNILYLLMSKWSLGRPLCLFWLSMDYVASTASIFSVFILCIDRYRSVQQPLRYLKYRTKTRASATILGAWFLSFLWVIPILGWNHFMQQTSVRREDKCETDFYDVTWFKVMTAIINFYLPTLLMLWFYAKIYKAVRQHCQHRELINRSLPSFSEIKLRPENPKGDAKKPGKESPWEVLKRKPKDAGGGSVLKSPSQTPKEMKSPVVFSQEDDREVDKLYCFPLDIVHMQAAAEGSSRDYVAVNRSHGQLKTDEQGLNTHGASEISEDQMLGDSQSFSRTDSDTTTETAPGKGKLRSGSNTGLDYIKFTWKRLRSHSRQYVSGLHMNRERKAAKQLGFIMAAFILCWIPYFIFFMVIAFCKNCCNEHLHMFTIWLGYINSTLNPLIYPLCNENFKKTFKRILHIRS
The target of test [16] is 5-hydroxytryptamine receptor 1E (Homo sapiens) (UniProt P28566).
Sequence of 5-hydroxytryptamine receptor 1E (Homo sapiens) (P28566 whole entry): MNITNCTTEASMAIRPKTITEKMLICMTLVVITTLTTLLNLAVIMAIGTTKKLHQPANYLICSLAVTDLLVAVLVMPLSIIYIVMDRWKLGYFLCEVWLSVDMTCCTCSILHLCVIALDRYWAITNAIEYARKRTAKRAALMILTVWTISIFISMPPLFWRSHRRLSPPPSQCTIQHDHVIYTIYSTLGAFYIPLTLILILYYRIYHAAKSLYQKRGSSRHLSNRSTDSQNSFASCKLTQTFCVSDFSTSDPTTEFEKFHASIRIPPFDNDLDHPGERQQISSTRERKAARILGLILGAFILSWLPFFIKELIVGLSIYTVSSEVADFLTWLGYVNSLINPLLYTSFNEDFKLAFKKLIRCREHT
In test [17] the target is Sigma non-opioid intracellular receptor 1 (Homo sapiens) (UniProt Q99720).
Sequence of Sigma non-opioid intracellular receptor 1 (Homo sapiens) (Q99720 whole entry): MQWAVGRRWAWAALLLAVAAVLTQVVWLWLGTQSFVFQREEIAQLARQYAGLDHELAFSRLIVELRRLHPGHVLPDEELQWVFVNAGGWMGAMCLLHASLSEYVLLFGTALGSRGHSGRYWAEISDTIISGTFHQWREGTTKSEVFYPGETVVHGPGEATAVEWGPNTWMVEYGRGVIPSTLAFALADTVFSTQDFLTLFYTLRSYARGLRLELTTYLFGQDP
Test [18] concerns the target T5, Muscarinic acetylcholine receptor M1 (Homo sapiens) (UniProt P11229).
T5 sequence (whole entry): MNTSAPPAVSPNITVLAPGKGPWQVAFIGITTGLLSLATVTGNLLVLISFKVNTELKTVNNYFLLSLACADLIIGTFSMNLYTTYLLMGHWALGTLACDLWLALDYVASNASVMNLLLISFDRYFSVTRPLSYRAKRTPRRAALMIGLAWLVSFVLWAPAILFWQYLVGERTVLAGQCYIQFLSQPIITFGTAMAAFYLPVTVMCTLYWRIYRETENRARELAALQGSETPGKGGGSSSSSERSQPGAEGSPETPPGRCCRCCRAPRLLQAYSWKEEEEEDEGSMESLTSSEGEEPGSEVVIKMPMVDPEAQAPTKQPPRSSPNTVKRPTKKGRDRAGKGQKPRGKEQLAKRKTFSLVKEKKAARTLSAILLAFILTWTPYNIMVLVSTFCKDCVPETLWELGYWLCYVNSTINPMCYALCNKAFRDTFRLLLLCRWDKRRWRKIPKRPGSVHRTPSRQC

Test [19] has as its target Histamine H3 receptor (Homo sapiens) (UniProt Q9Y5N1).
The target in test [20] is Sodium-dependent dopamine transporter (Homo sapiens) (UniProt Q01959).
The target of test [21] is Histamine H4 receptor (Homo sapiens) (UniProt Q9H3N8).
Sequence of Histamine H4 receptor (Homo sapiens) (Q9H3N8 whole entry): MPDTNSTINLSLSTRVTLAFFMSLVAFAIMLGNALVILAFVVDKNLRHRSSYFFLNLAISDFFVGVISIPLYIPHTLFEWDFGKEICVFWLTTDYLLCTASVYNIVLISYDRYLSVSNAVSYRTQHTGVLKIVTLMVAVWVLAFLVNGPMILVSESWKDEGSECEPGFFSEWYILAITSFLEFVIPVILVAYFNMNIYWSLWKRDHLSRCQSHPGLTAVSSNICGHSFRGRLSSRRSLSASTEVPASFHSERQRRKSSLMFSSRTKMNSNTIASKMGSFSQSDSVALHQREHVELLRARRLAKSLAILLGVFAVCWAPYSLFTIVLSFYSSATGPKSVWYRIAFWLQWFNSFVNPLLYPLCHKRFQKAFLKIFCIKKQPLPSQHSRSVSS
The target of test [22] is Histamine H2 receptor (Homo sapiens) (UniProt P25021).
The target of test [23] is T6, 5-hydroxytryptamine receptor 1A (Homo sapiens) (UniProt P08908).
T6 sequence (whole entry): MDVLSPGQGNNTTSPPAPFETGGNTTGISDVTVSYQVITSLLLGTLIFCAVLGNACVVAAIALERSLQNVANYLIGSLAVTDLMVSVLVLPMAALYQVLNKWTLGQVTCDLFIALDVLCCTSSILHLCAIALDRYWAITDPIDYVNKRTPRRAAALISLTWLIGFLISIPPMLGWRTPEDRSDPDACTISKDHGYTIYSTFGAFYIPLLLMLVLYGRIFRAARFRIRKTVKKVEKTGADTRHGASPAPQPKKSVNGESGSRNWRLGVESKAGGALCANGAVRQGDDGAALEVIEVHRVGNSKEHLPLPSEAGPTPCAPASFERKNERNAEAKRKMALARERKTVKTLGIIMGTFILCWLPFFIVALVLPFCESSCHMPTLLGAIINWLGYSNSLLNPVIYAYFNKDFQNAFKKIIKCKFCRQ

The target of test [24] is D(3) dopamine receptor (Homo sapiens) (UniProt P35462).
Test [25] addresses T7, Muscarinic acetylcholine receptor M4 (Homo sapiens) (UniProt P08173).
T7 sequence (whole entry): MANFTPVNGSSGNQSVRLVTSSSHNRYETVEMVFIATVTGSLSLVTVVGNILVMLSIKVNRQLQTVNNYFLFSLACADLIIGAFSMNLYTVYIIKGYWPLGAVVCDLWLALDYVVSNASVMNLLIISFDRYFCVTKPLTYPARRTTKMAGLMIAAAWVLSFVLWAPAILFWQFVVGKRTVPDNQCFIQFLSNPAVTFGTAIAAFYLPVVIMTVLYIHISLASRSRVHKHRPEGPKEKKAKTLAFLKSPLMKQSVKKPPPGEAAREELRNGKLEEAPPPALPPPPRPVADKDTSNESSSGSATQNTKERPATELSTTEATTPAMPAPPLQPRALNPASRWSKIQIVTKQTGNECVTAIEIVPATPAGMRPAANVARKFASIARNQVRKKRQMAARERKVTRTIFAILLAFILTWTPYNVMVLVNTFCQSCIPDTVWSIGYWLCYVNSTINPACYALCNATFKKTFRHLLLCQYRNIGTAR

The target in test [26] is Beta-3 adrenergic receptor (Homo sapiens) (UniProt P13945).
Test [27] has as its target D(1A) dopamine receptor (Homo sapiens) (UniProt P21728).
For test [28], the target named is Sodium-dependent serotonin transporter (Homo sapiens) (UniProt P31645).
Test [29] addresses 5-hydroxytryptamine receptor 2A (Homo sapiens) (UniProt P28223).
The target of test [30] is T8, 5-hydroxytryptamine receptor 3A (Homo sapiens) (UniProt P46098).
T8 sequence (whole entry): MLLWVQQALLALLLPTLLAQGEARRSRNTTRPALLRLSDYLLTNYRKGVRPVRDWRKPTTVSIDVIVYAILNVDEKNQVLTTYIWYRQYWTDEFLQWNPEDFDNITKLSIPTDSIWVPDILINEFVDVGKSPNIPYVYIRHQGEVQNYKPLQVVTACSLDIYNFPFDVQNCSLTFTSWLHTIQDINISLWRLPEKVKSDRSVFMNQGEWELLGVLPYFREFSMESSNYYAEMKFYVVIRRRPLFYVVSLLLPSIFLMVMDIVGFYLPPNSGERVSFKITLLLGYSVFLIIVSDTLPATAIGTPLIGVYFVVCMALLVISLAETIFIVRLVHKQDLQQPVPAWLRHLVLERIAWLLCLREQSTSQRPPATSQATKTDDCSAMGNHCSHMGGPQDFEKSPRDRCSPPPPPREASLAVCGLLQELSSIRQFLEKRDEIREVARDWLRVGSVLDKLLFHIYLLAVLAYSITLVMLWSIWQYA

Molecules are shown by their SMILES.

Sequence of Mu-type opioid receptor (Homo sapiens) (P35372 whole entry): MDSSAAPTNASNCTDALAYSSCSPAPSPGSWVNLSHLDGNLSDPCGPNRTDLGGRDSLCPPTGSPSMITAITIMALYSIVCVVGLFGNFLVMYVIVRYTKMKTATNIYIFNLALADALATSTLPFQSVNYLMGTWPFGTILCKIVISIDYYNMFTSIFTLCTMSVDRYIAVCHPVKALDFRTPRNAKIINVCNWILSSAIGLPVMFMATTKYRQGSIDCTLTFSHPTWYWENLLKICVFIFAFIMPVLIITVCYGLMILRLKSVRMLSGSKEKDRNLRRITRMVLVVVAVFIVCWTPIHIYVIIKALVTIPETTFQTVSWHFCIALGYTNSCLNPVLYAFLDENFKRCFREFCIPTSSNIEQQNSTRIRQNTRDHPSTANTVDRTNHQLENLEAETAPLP
Sequence of Histamine H3 receptor (Homo sapiens) (Q9Y5N1 whole entry): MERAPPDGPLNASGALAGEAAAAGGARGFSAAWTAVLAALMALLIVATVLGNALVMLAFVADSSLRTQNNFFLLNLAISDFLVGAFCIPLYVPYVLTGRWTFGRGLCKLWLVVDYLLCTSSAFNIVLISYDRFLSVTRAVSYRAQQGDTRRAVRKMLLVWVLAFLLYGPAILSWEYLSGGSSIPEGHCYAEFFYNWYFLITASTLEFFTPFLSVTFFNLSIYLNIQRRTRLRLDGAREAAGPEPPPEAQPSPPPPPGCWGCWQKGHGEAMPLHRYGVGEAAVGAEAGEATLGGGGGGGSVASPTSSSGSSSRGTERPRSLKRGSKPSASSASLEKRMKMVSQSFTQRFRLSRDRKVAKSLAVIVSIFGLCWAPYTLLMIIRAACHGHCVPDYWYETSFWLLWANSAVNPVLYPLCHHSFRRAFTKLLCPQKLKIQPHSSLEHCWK
Sequence of Kappa-type opioid receptor (Homo sapiens) (P41145 whole entry): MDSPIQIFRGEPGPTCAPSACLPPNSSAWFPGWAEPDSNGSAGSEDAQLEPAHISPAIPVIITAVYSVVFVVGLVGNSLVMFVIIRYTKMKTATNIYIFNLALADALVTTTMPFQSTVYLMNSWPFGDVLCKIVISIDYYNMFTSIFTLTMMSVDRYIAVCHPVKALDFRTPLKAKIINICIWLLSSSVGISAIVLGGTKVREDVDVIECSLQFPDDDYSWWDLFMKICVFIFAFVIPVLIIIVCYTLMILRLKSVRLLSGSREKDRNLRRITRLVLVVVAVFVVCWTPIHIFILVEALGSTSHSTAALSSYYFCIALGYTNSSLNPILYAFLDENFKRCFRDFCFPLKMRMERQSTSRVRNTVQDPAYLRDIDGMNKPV
Sequence of 5-hydroxytryptamine receptor 1B (Homo sapiens) (P28222 whole entry): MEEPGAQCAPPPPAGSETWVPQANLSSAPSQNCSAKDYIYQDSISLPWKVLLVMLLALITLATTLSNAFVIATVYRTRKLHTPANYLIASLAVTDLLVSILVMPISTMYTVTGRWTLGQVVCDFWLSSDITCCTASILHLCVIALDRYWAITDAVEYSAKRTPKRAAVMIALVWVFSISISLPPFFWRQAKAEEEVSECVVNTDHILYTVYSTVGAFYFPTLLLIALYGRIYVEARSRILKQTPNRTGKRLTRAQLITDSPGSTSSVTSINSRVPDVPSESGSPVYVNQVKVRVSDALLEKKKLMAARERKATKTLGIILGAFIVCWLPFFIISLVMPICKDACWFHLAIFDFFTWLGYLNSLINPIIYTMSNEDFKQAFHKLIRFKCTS
Sequence of D(2) dopamine receptor (Homo sapiens) (P14416 whole entry): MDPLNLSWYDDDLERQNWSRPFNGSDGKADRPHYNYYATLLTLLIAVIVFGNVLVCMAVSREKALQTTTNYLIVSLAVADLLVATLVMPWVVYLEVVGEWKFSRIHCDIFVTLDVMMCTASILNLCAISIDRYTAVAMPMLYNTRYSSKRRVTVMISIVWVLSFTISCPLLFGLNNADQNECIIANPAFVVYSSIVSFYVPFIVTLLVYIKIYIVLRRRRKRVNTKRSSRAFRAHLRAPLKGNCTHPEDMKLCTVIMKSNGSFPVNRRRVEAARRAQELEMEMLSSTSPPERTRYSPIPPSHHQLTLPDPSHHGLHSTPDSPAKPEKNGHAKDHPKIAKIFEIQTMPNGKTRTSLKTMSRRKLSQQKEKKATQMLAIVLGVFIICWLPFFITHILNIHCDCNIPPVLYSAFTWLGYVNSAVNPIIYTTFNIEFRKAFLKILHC

Usually inhibition stands for the relative decrease from the control value, in per cent. On to `O=C(O)c1n[nH]c2c1C[C@H]1C[C@@H]21`, for which the inhibition is 3.24% in test [1]; 4.46% in test [2]; 13% in [3]; -6.22% in [4]; -9.71% in [5]; 15.1% in test [6]. Further, the inhibition in test [7] is 1.98%; in [8], 8.74%; in [9], -4.86%; in test [10], -5.09%; in [11], 17.2%; in test [12], 3.75%. Moreover, the inhibition in [13] is -4.24%; in test [14], 11.9%; in [15] it was -7.37%; in test [16] it was 5.8%; in test [17], 14.3%; in [18], -7.24%. For the same compound, the results for the inhibition in test [19], in test [20] and in test [21] were -7.4%, 1.37% and 10%, respectively.
Regarding `Cc1c(C(=O)NC2CCCCC2)sc2nc3ccc(N)cc3n12`, the inhibition was 21.4% in test [22]; -2.67% in [2]; 27.8% in test [3]; 33.1% in [23]; 36.7% in [24]; 17.5% in test [4]. In addition, the inhibition in test [25] is -5.41%; in test [5], -1.44%; in [6] it was 53.3%; in [26], -9.6%; in test [8], -6.44%; in test [9] it was 38.1%. Moreover, the inhibition in [10] is 6.55%; in test [12], 5.51%; in [13], 8.54%; in test [27], 7.6%; in test [14] it was 10.3%; in test [28], 7.26%. The inhibition was 11.7% in test [15]; 5.97% in [16]; 10.5% in test [29]; 62.8% in test [17]; -6.74% in test [30]; 4.62% in test [19]. For the same compound, the inhibition is 17.7% in test [20] and 1.51% in [21].
